Measurements as given in PMC3651166, “Differential Cytotoxic Activity of a Novel Palladium-Based Compound on Prostate Cell Lines, Primary Prostate Epithelial Cells and Prostate Stem Cells” (PLoS ONE, 2013).
Where two headings read alike, the source gives them in different places.

What was measured:
Format in all cases: cell-based, human
P4E6 = assay: MTS assay, anti-growth effect on cell line
Protocol: (§1) In this study, six different prostate cell lines (PNT1A, PNT2-C2, BPH-1, PC-3, LNCaP, P4E6) were used (Table 1). These cell lines encompass the spectrum of cellular differentiation status (basal, intermediate and luminal phenotypes), as well as the spectrum of normal, early cancer and late cancer. BPH-1 is derived from benign prostate hyperplasia (BPH), while PNT2-C2 and PNT1A are derived from normal prostate. PC-3, LNCaP and P4E6 are cancer cell lines. LNCaP, PNT2-C2, PNT1A were grown in RPMI medium with 10% FCS (foetal calf serum); PC-3 was grown in Ham’s F-12 medium with 7% FCS; BPH-1 was grown in RPMI medium with 5% FCS; P4E6 was grown in KSFM (Keratinocyte serum free medium) with 2% FCS. No antibiotics were used in any media. The cells were incubated at 37°C in a humidified atmosphere containing 5% CO2.
(§2) This assay was performed for the initial screening of the effect of the Pd complex on the cell lines and the whole cell population of primary cultures. The CellTiter 96® Aqueous One Solution Cell Proliferation Assay kit (G3580, Promega, Madison, WI, USA) was used and the manufacturer’s instructions were followed. Briefly, after treating cells that were seeded at a density of 5,000 cells per well in a 96-well plate in triplicate for a desired period (24 h, 48 h, 72 h), 20 µL of reagent was added to each well. Following 2.5 h incubation at 37°C, the absorbance was read at 485 nm using a plate reader (PolarStar Optima, BMG Labtech, UK). Percent viability was calculated using the formula (% Viability = [(Sample Absorbance/Control Absorbance)]×100.
(§3) MTS and ATP assays were performed in triplicate and data presented as the mean +/− standard deviation. IC50 values (Table 3 and Table 4) were calculated from graphs of transformed data following application of the nonlinear regression (curve fit) that represents the log(inhibitor) ‘v’ normalized response (GraphPad Prism software) (Supplementary Figures S1 and S2). For significance calculations, the Wilcoxon rank sum test was used (Sigmaplot). Flow cytometry analysis was carried out in triplicate and results are presented as an average with error bars indicating the standard error.

PNT2-C2 = assay: MTS assay, anti-growth effect on cell line
Protocol: as §1, §2, §3

PC-3 = assay: MTS assay, anti-growth effect on cell line
Protocol: as §1, §2, §3

BPH-1 = assay: MTS assay, anti-growth effect on cell line
Protocol: as §1, §2, §3

LNCaP = assay: MTS assay, anti-growth effect on cell line
Protocol: as §1, §2, §3

PNT1A = assay: MTS assay, anti-growth effect on cell line
Protocol: as §1, §2, §3

[1] = system: primary cultures from BPH and Gleason 6/7 cancers; assay: MTS assay, primary cultures BPH and Gleason 6/7 together
Description: Primary prostate epithelial cells were isolated from human tissue samples. The samples were collected with ethical permission from York District Hospital (York, UK) and Castle Hill Hospital (Cottingham, UK). Benign prostatic hyperplasia (BPH) and prostate cancer samples were obtained from TURP (transurethral resection of the prostate), radical prostatectomy (laparoscopic and open) and cystectomy operations. All patients gave written consent for their tissue to be used for research and all patient samples were anonymised. Permission was approved by the Local Research Ethical Committees, associated with York District Hospital and Castle Hill Hospital. Permission was administered by the Yorkshire and Humber Research Ethics Committee. […]
This assay was performed for the initial screening of the effect of the Pd complex on the cell lines and the whole cell population of primary cultures. […] Following 2.5 h incubation at 37°C, the absorbance was read at 485 nm using a plate reader (PolarStar Optima, BMG Labtech, UK). Percent viability was calculated using the formula (% Viability = [(Sample Absorbance/Control Absorbance)]×100.

BPH primary cells = assay: MTS assay, primary cultures from benign prostate hyperplasia
Description: Primary prostate epithelial cells were isolated from human tissue samples. The samples were collected with ethical permission from York District Hospital (York, UK) and Castle Hill Hospital (Cottingham, UK). Benign prostatic hyperplasia (BPH) and prostate cancer samples were obtained from TURP (transurethral resection of the prostate), radical prostatectomy (laparoscopic and open) and cystectomy operations. All patients gave written consent for their tissue to be used for research and all patient samples were anonymised. Permission was approved by the Local Research Ethical Committees, associated with York District Hospital and Castle Hill Hospital. Permission was administered by the Yorkshire and Humber Research Ethics Committee.
Prostate epithelial cells were cultured as previously described in stem cell media (SCM) consisting of keratinocyte serum-free media (KSFM) with bovine pituitary extract (BPE) and epidermal growth factor (EGF), glutamine, stem cell factor (SCF), granulocyte macrophage colony stimulating factor (GM-CSF), leukaemia inhibitory factor (LIF) and cholera toxin. Cells were grown with STO feeder cells (irradiated at 60 Gy) on collagen I-coated plates.
as §2, §3

cleaved caspase-3 = assay: Western blotting for apoptosis, cell lines
Protocol: Following drug treatment, cell lysates were harvested using Cytobuster Protein Extraction Reagent (71009, EMD Millipore, Darmstadt, Germany) with protease inhibitors (cOmplete, EDTA-free Protease Inhibitor Cocktail Tablets, Roche Applied Science, UK). 20 µg of protein extract were loaded on 12% SDS-PAGE gels and wet-transferred to a PVDF membrane. Antibodies used include: monoclonal anti-β-actin 1∶5000 (A5316, Sigma-Aldrich), anti-LC3B 1∶3000 (Ab51520, abcam), cleaved caspase-3 (Asp175) 1∶1000 (9661S, Cell Signaling Technology) and secondary antibodies were Rabbit anti-mouse-HRP 1∶10000 (P0260, Dako) and anti-rabbit IgG HRP-linked 1∶5000 (Cell Signaling Technology Inc. 7074S). Kaleidoscope protein marker was run on each gel (161-0324, Bio-Rad).

LC3-II = assay: Western blotting and immunofluorescence for autophagy, primary cells; conditions: all primary cells
Protocol: γH2AX staining: Cells were seeded onto 8-well collagen I-coated chamber slides. […] After blocking of non-specific binding with 2% BSA in PBS with 1% goat serum for 1 hour at RT, primary antibody (anti-phospho-histone H2A.X (Ser139), clone JBW301, Millipore, Cat no. 05–636) at 1∶1000 dilution was added in 3% BSA in PBS at 4°C overnight followed by three washes in 0.5% BSA in PBS with 0.175% Tween 20. Following incubation with secondary antibody (Goat anti-mouse Alexa Fluor 568, Invitrogen, Cat no. A-11004) at 1∶1000 dilution for 45 min in 3% BSA in PBS and three more washes in the same washing buffer, the slides were mounted using Vectashield with DAPI (Vector Laboratories, Cat no. H-1200). LC3-B staining: Cells were treated as above then fixed with 4% paraformaldehyde, followed by an incubation in 0.3% Triton X-100. After blocking with 10% normal goat serum, cells were incubated in anti-LC3B 1∶200 (Ab51520, abcam) diluted in 0.1% Triton X-100 in PBS. Secondary antibody was Alexa Fluor 568 goat anti-rabbit IgG 1∶1000 (Invitrogen A11011).

[PdCl(terpy)](sac)⋅2 H2O [Pd complex] was tested, and the IC50 (P4E6; P4E6, 24 h) was 21.8 µM, the IC50 (P4E6; P4E6, 48 h) was 9.66 µM and the IC50 (P4E6; P4E6, 72 h) was 4.37 µM. For the same substance, the IC50 (PNT2-C2; PNT2-C2, 24 h) was 1.73 µM, the IC50 (PNT2-C2; PNT2-C2, 48 h) was 17.2 µM and the IC50 (PNT2-C2; PNT2-C2, 72 h) was 0.903 µM. The IC50 (PC-3; PC-3, 24 h) was 98.9 µM, the IC50 (PC-3; PC-3, 48 h) was 49.1 µM and the IC50 (PC-3; PC-3, 72 h) was 26.8 µM. It also gave an IC50 (BPH-1; BPH-1, 24 h) of 17.6 µM, an IC50 (BPH-1; BPH-1, 48 h) of 1.88 µM and an IC50 (BPH-1; BPH-1, 72 h) of 0.14 µM. For the same substance, the IC50 (LNCaP; 24 h) was 106 µM, the IC50 (LNCaP; 48 h) was 11.9 µM and the IC50 (LNCaP; 72 h) was 3.43 µM. It also gave an IC50 (PNT1A; 24 h) of 28 µM, an IC50 (PNT1A; 48 h) of 1.26 µM and an IC50 (PNT1A; 72 h) of 0.106 µM. For the same substance, the “concentrations having a significant anti-growth effect on all samples” value ([1]; BPH and Gleason 6/7 samples, 72 h) was “higher than 6.25”, the “lowest concentration inducing a significant anti-growth effect” value ([1]; primary cultures, previous experiments (MTS)) was 6.25 µM and the IC50 (BPH primary cells; BPH primary cells, sample 1608, 72 h, read-out: IC50) was 5.97 µM. It also gave an IC50 (BPH primary cells; BPH primary cells, sample 3108, 72 h, read-out: IC50) of 7.33 µM, an IC50 (BPH primary cells; BPH primary cells, sample 7611, 72 h, read-out: IC50) of 6.97 µM and an IC50 (BPH primary cells; BPH primary cells, sample 8109, 72 h, read-out: IC50) of 14.4 µM. The IC50 (BPH primary cells; average of BPH primary cells, 72 h, read-out: IC50 AVERAGE) was 8.67 µM, the “reduction of cell viability compared to etoposide” value (BPH primary cells; benign samples, both at 25 µM, 72 h, median values) was “at least 5.6 fold” and the “cleaved caspase-3 (apoptosis)” value (cleaved caspase-3; BPH-1, PNT2-C2 and P4E6 cells) was “clear induction of cleaved caspase-3”. For the same substance, the “cleaved caspase-3 (apoptosis)” value (cleaved caspase-3; LNCaP cells) was “only observed after treatment with 25 µM Pd complex”, the “cleaved caspase-3 (apoptosis)” value (cleaved caspase-3; PC3 cells) was “no evidence of cleaved caspase-3” and the “LC3-II (autophagy)” value (LC3-II) was “clear increase in LC3-II”.
